According to patent US9572786B2, “Use of capsiate or dihydrocapsidate” (Catholic University Industry Academy Cooperation Foundation, priority 2007, dated 2017):

Key:
COX-2 = experiment: UV-induced COX-2 expression in mouse skin tissue, Western blotting; format: in vivo; conditions: hairless mouse; 200 μL of 1 mM topically; 4 times of UV irradiation
Protocol: In order to confirm the in vitro experiment result performed on the human keratinocyte HaCaT cells in an animal model, experiment was carried out as follows using hairless mouse (SKH-1). Test groups were as follows: non-treated group—treated with acetone only without UV irradiation; test group A—treated with 200 μL of 1 mM capsiate dissolved in acetone every 24 hours without UV irradiation; control group—treated with UV and acetone; test group B—treated with UV and 200 μL of 1 mM capsiate dissolved in acetone every 24 hours (Unspecified conditions are the same as in Examples 5-7.).
Capsiate was applied on the back of the mouse. 1 hour later, UV was irradiated at an intensity of 2.5 kJ/m^2. 1 hour later, capsiate was applied again at the same concentration in order to prevent rash which may occur immediately after UV irradiation. Thereafter, capsiate was applied every 24 hours and UV irradiation was carried out every other day at an intensity of 2.5 kJ/m^2 for 4 times. In order to investigate the change of tissue and intracellular mechanism (signaling), the mouse was euthanized 1 hour after the final UV irradiation. Skin tissue was taken from the back of the mouse and subjected to skin biopsy following observation.
In the foregoing, it was confirmed that capsiate suppress inflammatory response, angiogenesis, edema, etc. caused by the UV-induced skin damage. […]

TNF-α = experiment: UV-induced pro-inflammatory cytokine mRNA, RT-PCR: TNF-α; format: cell-based, human; conditions: HaCaT cells; 10, 25, 50 μM; UV 100 J/m^2; 4 hours
Protocol: (§1) 1×10^6 HaCaT cells were placed on a 100 mm Petri dish and cultured for 24 hours in DMEM containing 10% FBS. Subsequently, the cells were cultured for 24 hours in DMEM containing 1% FBS until starvation. Then, after treating with capsiate at different concentrations (10 μM, 25 μM, 50 μM) for 30 minutes, followed by washing 3 times with PBS, UV was irradiated at an intensity of 100 J/m^2 to induce the production of cytokines. Immediately after the UV irradiation, the cells were washed again with PBS and further cultured for 4 hours in DMEM containing 1% FBS, which was treated with capsiate at the same concentration as in the pre-treatment.
Then, the degree of mRNA expression for IL-6, IL-8 and TNF-α induced mainly in the skin by the UV irradiation was evaluated by RT-PCR in order to measure the inhibition effect against the pro-inflammatory cytokines.
RNAs were extracted from the cells of each test group using Trizol (Invitrogen, USA) and used as template for PCR (PTC-225 Peltier thermal cycler, MJ Research, USA) to prepare cDNAs for each test group. Using the resultant cDNAs as template, the degree of mRNA expression for IL-6, IL-8 and TNF-α was measured by RT-PCR (Roter Gene 6000 series, Corbett Research, Australia) using commercial IL-6, IL-8 and TNF-α primers. […]

MMP-9 = experiment: UV-induced MMP-9 mRNA expression, RT-PCR; format: cell-based, human; conditions: HaCaT cells; 10, 25, 50 μM; UV 100 J/m^2; 36 hours
Protocol: The inhibition effect of capsiate on the expression of MMP-2 and MMP-9, which induce angiogenesis, was investigated through measurement of mRNA expression by RT-PCR and protein expression and activity measurement by zymography.
as §1, with “In order to investigate the inhibition effect of capsiate on MMP expression, 5×10^5 HaCaT” for “1×10^6 HaCaT”, “a 60” for “a 100”, “100 J/m^2.” for “100 J/m^2 to induce the production of cytokines.”, “for 36” for “for 4”, “pre-treatment. The degree of intracellular mRNA expression for MMP-2 and MMP-9 was measured by RT-PCR in the same manner as in Example 3. The degree of MMP expression was compared with that of the non-treated group.” for “pre-treatment.”

hairless mouse = experiment: Change of mouse skin tissue after UV, hematoxylin-eosin staining; format: in vivo; conditions: 4 times of UV irradiation every other day at 2.5 kJ/m^2
Protocol: When the skin is exposed to UV, erythema, or […] of the skin, occurs accompanied by edema, prior to a variety of cellular changes including inflammation, apoptosis, carcinogenesis, or the like [Tadashi Terui, Hachiro Tagami, Mediators of inflammation involved in UVB erythema, Journal of Dermatological Science 23 Suppl. 1 (2000) S1S5]. In order to investigate the effect of capsiate on erythema accompanied by UV-induced inflammatory response, experiment was carried out as follows using hairless mouse. Test groups were as follows: non-treated group—treated with acetone only without UV irradiation; test group A—treated with 200 μL of 1 mM capsiate dissolved in acetone without UV irradiation; UV group—treated with acetone and UV; test group B—treated with UV and 200 μL of 1 mM capsiate dissolved in acetone every 24 hours.
After 4 times of UV irradiation every other day at an intensity of 2.5 kJ/m^2, hematoxylin-eosin staining was carried out in order to observe the change of mouse skin tissue.

SMILES: COc1cc(COC(=O)CCCC/C=C/C(C)C)ccc1O [capsiate]
- expression of COX-2 induced in mouse skin tissue (Western blotting) (COX-2): remarkably decreased
- expression of TNF-α (mRNA) increased by UV irradiation (TNF-α): significantly decreases
- UV-induced mRNA expression of MMP-9 (MMP-9): decreased
- thickness of the epidermis (hematoxylin-eosin staining) (hairless mouse): less thick
